Experimental findings from patent US9115072B2, “Compounds and method for reducing uric acid” (WELLSTAT THERAPEUTICS CORPORATION, priority 2008, dated 2015) are described below.

One series concerns the target T1, human URAT1 (Homo sapiens, UniProt Q96S37).
T1 construct: The full-length hURAT1 cDNA was obtained from the vector pCMV6-XL5 and subcloned into the expression vector pCMV6-Neo
T1 sequence (Q96S37 1-553): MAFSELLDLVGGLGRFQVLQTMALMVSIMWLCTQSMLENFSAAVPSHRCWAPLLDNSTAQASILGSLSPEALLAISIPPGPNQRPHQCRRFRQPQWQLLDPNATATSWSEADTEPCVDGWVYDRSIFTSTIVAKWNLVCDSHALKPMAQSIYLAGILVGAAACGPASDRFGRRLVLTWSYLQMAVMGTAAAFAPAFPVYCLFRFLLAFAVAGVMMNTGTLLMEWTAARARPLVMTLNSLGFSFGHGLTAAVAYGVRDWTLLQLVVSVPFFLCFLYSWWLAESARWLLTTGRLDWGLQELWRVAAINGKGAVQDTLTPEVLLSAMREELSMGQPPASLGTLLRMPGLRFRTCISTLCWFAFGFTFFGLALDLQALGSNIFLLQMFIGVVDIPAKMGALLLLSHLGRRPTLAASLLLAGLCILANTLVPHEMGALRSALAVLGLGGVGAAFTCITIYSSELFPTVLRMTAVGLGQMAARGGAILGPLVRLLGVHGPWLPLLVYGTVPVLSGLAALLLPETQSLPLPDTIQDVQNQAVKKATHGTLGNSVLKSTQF
The series can be described thus: URAT1 inhibition assay, [8-14C] urate uptake in hURAT1-HEK cells. It counts as cell-based. The conditions noted are these: 50 μM [8-14C] urate. Here is the method:
A suitable assay involves transfection of cells (e.g. human embryonic kidney cells; “HEK”) with a vector encoding human URAT1, followed by determination of the ability of transfected cells to take up radiolabeled uric acid. The activity of compounds as URAT1 inhibitors is evaluated by their ability to block uric acid uptake by transfected cells.
Urate (50-60 mCi/mmol; American Radio Chemicals, Cat. No. ARC0513).
Plasmid vector pCMV6-XL5 containing hURAT1 cDNA (Cat. No. SC125624) and the expression vector pCMV6-Neo (Cat. No. pCMVNEO) were obtained from OriGene Technologies, Inc. The full-length hURAT1 cDNA was obtained from the vector pCMV6-XL5 and subcloned into the expression vector pCMV6-Neo to create the hURAT1 expression plasmid pCMV6-hURAT1. The sequences were verified by automatic DNA sequencing.
For transfection experiments, cells were plated on 60 mm dishes in 1 ml media per dish. […] Stable transfectants expressing hURAT1 (herein after referred as hURAT1-HEK cells) or cells having only the expression vector pCMV6-Neo (herein after referred as mock-HEK cells) were verified using reverse transcription polymerase chain reaction (RT-PCR) methods.
Before the uptake assay started, the culture medium was removed and the cells were incubated for 5 min in 0.6 ml of HBSS. After that HBSS was removed, the prepared reaction solutions were added into each well and incubated for 5 min at room temperature. Then the reaction solution was removed, cells were washed twice with 0.6 ml of cold HBSS and lysed with 0.2 ml of 0.1 M NaOH for 20 min. […] Test compounds were dissolved in DMSO and the same concentration of DMSO was added into the wells of mock-HEK cells and the hURAT1-HEK cells that didn't contain test compounds. For each test compound, the uptake assay was performed 2 times and carried out in triplicate. Urate uptake of the cells for each test condition was presented as the average percent inhibition in comparison to the DMSO control. The radioactivity values obtained for the wells that contained DMSO were taken as 100% uptake of the cells. The observed concentration-percent inhibition data were fitted to a sigmoidal concentration-effect model, where: IC50^Slope=[(100*Conc^Slope)/% Inhibition]−Conc^Slope
Additional drug concentrations were tested for determination of IC-50 values for some compounds (Table 6).

The nature of series [1]: Rat oral single-dose pharmacokinetic study. Format: in vivo. The note with it: 100 mg/kg single oral gavage. As to the method: • 1. Male Sprague-Dowley rats received single oral gavage of Compound EH, 100 mg/kg, and plasma was collected at certain times. • 2. Rat plasma was stored at −80° C. until the day of analysis. • 3. Samples were thawed on 37° C. bath for 5 min and vortexed at top speed for 10 sec. • 4. Rat plasma, 0.1 mL was mixed with 0.2 mL Acetonitrile, vortexed 1 min, spun down 14000 rpm, 17000 g, at 4° C., for 25 min. • 5. Supernatants were filtered through 0.45 micron, 4 mm, PTFE membrane syringe filter (Phenomenex #AF0-3102-52), and 15 microL were injected and resolved on Luna 3 micron, 100 A pore, C8(2), 150×3 mm, reverse phase column (Phenomenex#00F-4248-YO, SN#259151-7) in 50 min linear gradient from 40% to 69% of (0.1% Formic Acid, 89.9% Acetonitrile, 10% Methanol) at 0.25 mL/min, 107 bar, 37° C. column temperature, method 406975M1, Sequence 0226-09A, Agilent 1100 LC-MS.
All samples were run in duplicate, 210 nm and 230 nm Absorbances, Negative and Positive ionization spectrograms recorded.
Step 1. Rat plasma from V2 and V3 animals (“vehicle”, pooled), 0.19 mL, was mixed with 0.01 mL 20× stock of Compound EH in Methanol to make 500 microM, 250 microM, 125 microM, . . . , concentrations of Compound EH in plasma.
For example: 190 microL plasma+10 microL of 10 mM Compound EH in methanol=0.2 mL plasma with 500 microM Compound EH.
Step 2. Samples from step 1 were vortexed for 10 sec at top speed.
Step 3. 0.4 mL of acetonitrile was added to all samples from Step 2, and all vials were vortexed at top speed for 1 min.
Step 4. All samples from step 3 were spun down 14000 rpm, 17000 g, at 4° C., for 25 min.
Step 5. Supernatants were filtered through 0.45 micron, 4 mm, PTFE membrane syringe filter (Phenomenex #AF0-3102-52), 15 microL were injected and resolved on Luna 3 micron, 100 A pore, C8(2), 150×3 mm, reverse phase column

As usually defined, the pIC50 is the IC50 on a negative log10 scale, so that one unit is a factor of ten. Read a high pIC50 as a small IC50. Broadly, the inhibition is the drop in the measured response relative to a control, in per cent. Broadly, the Cmax is the maximum level reached in the sampled fluid or tissue.

pIC50: −log10 of the molar value.

As to `Cc1ccc(CC(=O)O)cc1OCc1c(C)cccc1C` [Compound EH, 2-(3-(2,6-Dimethylbenzyloxy)-4-methylphenyl)acetic acid], the pIC50 at human URAT1 is 7.10. The inhibition at 10 µM on human URAT1 (drug concentration typically 10 micromolar, read-out: % of Inhibition (uric acid uptake)) was determined as 95.9%. The concentration at 0 h in series [1] (male, Sprague-Dawley, rat, plasma, time 0 HR, read-out: Compound EH concentration in rat plasma) amounted to 0 nM. In addition, the concentration at 0.25 h in series [1] (male, Sprague-Dawley, rat, plasma, time 0.25 HR, read-out: Compound EH concentration in rat plasma) stood at 349 µM. Moreover, the concentration at 0.5 h in series [1] (male, Sprague-Dawley, rat, plasma, time 0.5 HR, read-out: Compound EH concentration in rat plasma) was 723 µM. Also, the concentration at 2 h in series [1] (male, Sprague-Dawley, rat, plasma, time 2 HR, read-out: Compound EH concentration in rat plasma) came out at 79 µM. The concentration at 4 h in series [1] (male, Sprague-Dawley, rat, plasma, time 4 HR, read-out: Compound EH concentration in rat plasma) was determined as 126 µM. Also, the concentration at 6 h in series [1] (male, Sprague-Dawley, rat, plasma, time 6 HR, read-out: Compound EH concentration in rat plasma) was 112 µM. The concentration at 8 h in series [1] (male, Sprague-Dawley, rat, plasma, time 8 HR, read-out: Compound EH concentration in rat plasma) came to 48 µM. Moreover, the concentration at 24 h in series [1] (male, Sprague-Dawley, rat, plasma, time 24 HR, read-out: Compound EH concentration in rat plasma) was 0 nM. Further, the highest level in series [1] (male, Sprague-Dawley, rat plasma) (Cmax) was 723 µM. Moreover, in series [1] (rat plasma), the “AUC(0-24)” value is 1765 µM·h.
